In patent US20220125886A1 (The Board of Trustees of the Leland Stanford Junior …, priority 2019, published 2022):
“Also recorded” adds a separate entry of the source.

How the values were obtained:
[1] = reported previously, used for the fit; cited from earlier work
[2] = Diffusion-ordered NMR spectroscopy (DOSY) of protein/CB[7]-PEG complexes; type: physicochemical; details: for diffusion rate D: DOSY, protein 6 mg mL^−1, 200 mM phosphate buffer pH 7, D2O, zinc removed with EDTA; for hydrodynamic radius (Rh): approximated from D by the Stokes-Einstein relationship
Text: A Varian Inova 600 MHz NMR instrument was used to acquire the data. Magnetic field strengths ranging from 2 to 57 G cm^−1. The DOSY time and gradient pulse were set at 132 ms (Δ) and 3 ms (δ) respectively. All NMR data were processed using MestReNova 11.0.4 software.

[3] = Circular dichroism of protein secondary structure when bound to CB[7]-PEG; type: physicochemical; details: PBS pH 7.4, with CB[7]-PEG, with or without EDTA
Description: After mixing, samples were left to equilibrate for 15 minutes at room temperature. […] circular dichroism spectroscopy was performed at 20° C. with a J-815 CD Spectropolarimeter (Jasco Corporation) over a wavelength range of 185-250 nm using a 0.1 cm pathlength cell.

[4] = In vitro stability: aggregation under stressed conditions by change in transmittance at 540 nm; type: physicochemical
Description: These aggregates are large and scatter light, allowing the degree of aggregation to be evaluated by measuring the change in transmittance over time. […] Data shown in FIGS. 2A-2E are the average transmittance trace for n=3 samples per group.
The plate was immediately placed into an plate reader and incubated with continuous shaking 37° C. Absorbance readings were taken every 10 minutes at 540 nm for 100 h (BioTek SynergyH1 microplate reader).
Controls included: (i) NOVOLOG®, (ii) zinc-free NOVOLOG®, (iii) pramlintide (sodium acetate buffer at pH=4), (iv) pramlintide (PBS at pH=7), (v) NOVOLOG®+pramlintide (PBS at pH=7.4).

[5] = given for comparison; cited from earlier work
[6] = according to Webber et al., agitation; cited from earlier work

Row | Compound | diffusion rate D [2] | hydrodynamic radius (Rh) [2] [nm] | effect of CB[7]-PEG binding on protein (secondary) structure [3] | further results
1 | CN(C)c1ccc2cc3ccc(N(C)C)cc3nc2c1 [AO, Acridine Orange] |  |  |  | CB[7]⋅AO equilibrium constant (Keq) [1]: 200000 M⁻¹
2 | CC[C@H](C)[C@H](NC(=O)[C@@H]1CCCN1C(=O)CNC(=O)[C@H](Cc1ccccc1)NC(=O)[C@H](CC(N)=O)NC(=O)[C@H](CC(N)=O)NC(=O)[C@H](CO)NC(=O)[C@H](CO)NC(=O)[C@H](Cc1c[nH]cn1)NC(=O)[C@@H](NC(=O)[C@H](CC(C)C)NC(=O)[C@H](Cc1ccccc1)NC(=O)[C@H](CC(N)=O)NC(=O)[C@H](C)NC(=O)[C@H](CC(C)C)NC(=O)[C@H](CCCNC(=N)N)NC(=O)[C@H](CCC(N)=O)NC(=O)[C@@H](NC(=O)[C@H](C)NC(=O)[C@@H]1CSSC[C@H](NC(=O)[C@@H](N)CCCCN)C(=O)N[C@@H](CC(N)=O)C(=O)N[C@@H]([C@@H](C)O)C(=O)N[C@@H](C)C(=O)N[C@@H]([C@@H](C)O)C(=O)N1)[C@@H](C)O)C(C)C)C(=O)N[C@@H](CC(C)C)C(=O)N1CCC[C@H]1C(=O)N1CCC[C@H]1C(=O)N[C@H](C(=O)N[C@@H](CC(N)=O)C(=O)N[C@H](C(=O)NCC(=O)N[C@@H](CO)C(=O)N[C@@H](CC(N)=O)C(=O)N[C@H](C(=O)N[C@@H](Cc1ccc(O)cc1)C(N)=O)[C@@H](C)O)C(C)C)[C@@H](C)O [pramlintide] | ~2×10^−10 m^2 s^−1 | 1.2 | did not affect protein structure; also recorded: no difference in protein secondary structure was observed | ratio of diffusion rates, pramlintide alone to insulin in a standard formulation ([2]; standard formulation): ~2.3; time stable ([4]; pH=4 sodium acetate buffer): over 100 hours; time to aggregation / time stable ([4]; pH=7.4 in PBS, aggregation measured as ~5% change in transmittance at 540 nm): 15 ± 4 h
3 | insulin aspart | ~1.2×10^−10 m^2 s^−1 | ~2.2 | did not affect protein structure; also recorded: did not alter the secondary structure | 
4 | insulin hexamer: hexameric association state of insulin in standard zinc formulations |  |  |  | hydrodynamic radius [5]: approximately 2.8 nm
5 | native insulin: recombinant human insulin of Webber et al. |  |  |  | aggregation time (tA), 10% reduction in transmittance [6]: 13.6 ± 0.2 h
